Measurements from US6451789B1, “1-aza-2-alky-6-aryl-cycloalkanes” (Les Labortoires Servier, priority 1999, dated 2002).

Key:
Format in all cases: in vivo
Wistar rat [1] = assay: Social recognition in the Wistar rat; settings: intraperitoneal route, dose 3 mg/kg, second encounter after 2 hours
Text: Social Recognition in the Wistar Rat
Initially described in 1982 by THOR and HOLLOWAY, (J. Comp. Physiol., 1982, 96, 1000-1006), the social recognition test has subsequently been proposed by various authors (DANTZER et al., Psychopharmacology, 1987, 91, 363-368; PERIO et al., Psycho-pharmacology, 1989, 97, 262-268) for studying the mnemocognitive effects of new compounds. The test is based on the natural expression of the olfactory memory of the rat and its natural tendency to forget and allows evaluation of memorisation, by recognition of a young congeneric animal, by an adult rat. A young rat (21 days), taken at random, is placed for 5 minutes in the cage housing an adult rat. With the aid of a video device, the experimenter observes the social recognition behaviour of the adult rat and measures its overall duration. The young rat is then removed from the adult rat's cage and is placed in its own cage until the second introduction. The adult rat is given the compound under test by intraperitoneal route and, after 2 hours, is again brought into the presence (5 minutes) of the young rat. The social recognition behaviour is then observed again and its duration measured.
The Table hereinbelow gives the difference (T2—T1), expressed in seconds, between the “recognition” times of the 2 encounters.

Wistar rat [2] = assay: Object recognition in the Wistar rat; settings: 30 minutes before each session, 24 hours between sessions
Text: Object Recognition in the Wistar Rat
The object recognition test in the Wistar rat was initially developed by ENNACEUR and DELACOUR (Behav. Brain Res., 1988, 31, 47-59). The test is based on the spontaneous exploratory activity of the animal and has he characteristics of episodic memory in humans. This memory test is sensitive to ageing (SCALI et al., Eur. J. Pharmacol., 1997, 325, 173-180) and to cholinergic dysfunctions (BARTOLINI et al., Pharm. Biochem. Behav. 1996, 53(2), 277-283) and is based on the differences in the exploration of 2 objects of fairly similar shape—one familiar, the other new. Prior to the test, the animals are habituated to the environment (an enclosure without an object). In the course of a first session, the rats are placed (3 minutes) in the enclosure, in which there are 2 identical objects. The duration of exploration is measured for each object. In the course of the second session (3 minutes), 24 hours later, 1 of the 2 objects is replaced by a new object. The duration of exploration is measured for each object. The assessment criterion is the difference, Delta, expressed in seconds, between the exploration times for the new object and for the familiar object in the course of the second session.
The Table hereinbelow gives the difference, Delta, expressed in seconds, between the exploration times of the 2 objects.

NMRI mouse = assay: Abdominal contractions induced by phenyl-p-benzoquinone (PBQ) in the NMRI mouse; settings: IP, PBQ at t=30 min, cramps counted t=35-45 min
Procedure: Abdominal Contractions Induced by Phenyl-p-Benzoquinone (PBQ) in the NMRI Mouse
Intraperitoneal administration of an alcoholic solution of PBQ causes abdominal cramps in the mouse (SIEGNUND et al., Proc. Soc. Exp. Biol., 1957, 95, 729-731). The cramps are characterized by repeated contractions of the abdominal musculature, accompanied by extension of the hind limbs. Most analgesics antagonise these abdominal cramps (COLLIER et al., Brit. J. Pharmacol. Chem., 1968, 32, 295-310). At t=0 min., the animals are weight and the compound being studied is administered by the IP route. A group of contol animals is given the solvent used for the compound. At t=30 min., an alcoholic solution of PBQ (0.2%) is administered by the IP route in a volume of 0.25 ml/mouse. Immediately after administration of the PBQ, the animals are placed in cylinders of plexiglass (L=19.5 cm; I.D.=5 cm). From t=35 min. to t=45 min., the animals' reaction is observed and the experimenter notes the total number of abdominal cramps per animal. The Table hereinbelow gives the percentage inhibition of the number of abdominal cramps measured in the control animals, at the active dose of the compound studied.

CC1=CC(=O)CC(c2cccc(Cl)c2)N1 (racemic) [Example 1, (±)-2-(3-Chlorophenyl)-6-methyl-2,3-dihydro-4(1H)-pyridinone]
T2 − T1 (s), difference between the recognition times of the 2 encounters (Wistar rat [1]): -36 s
Delta (s), difference between exploration times for new and familiar object (Wistar rat [2]; dose 0.3 mg/kg, i.p.): 7.5 s
Delta (s), difference between exploration times for new and familiar object (Wistar rat [2]; dose 0.3 mg/kg, p.o.): 9.95 s
Inhibition (%) of the number of abdominal cramps (NMRI mouse; dose 10 mg/kg): 51%

C[C@@H]1C[C@H](O)C[C@H](c2ccccc2)N1.Cl (relative stereo) [Example 21, (2R*,4S*,6R*)-2-Phenyl-6-methyl-4-piperidinol hydrochloride]
T2 − T1 (s), difference between the recognition times of the 2 encounters (Wistar rat [1]): -33 s

CC1=CC(=O)CC(c2ccsc2)N1 (racemic) [Example 30, (±)-6-Methyl-2-(3-thienyl)-2,3-dihydro-4(1H)-pyridinone]
Inhibition (%) of the number of abdominal cramps (NMRI mouse; dose 20 mg/kg): 51%

C[C@@H]1C[C@H](O)C[C@H](c2ccccc2)N1.O=C(O)C(=O)O (relative stereo) [Example 22, (2R*,4S*,6R*)-2-Phenyl-6-methyl-4-piperidinol oxalate]
Delta (s), difference between exploration times for new and familiar object (Wistar rat [2]; dose 0.3 mg/kg, i.p.): 9.98 s
Delta (s), difference between exploration times for new and familiar object (Wistar rat [2]; dose 3 mg/kg, p.o.): 5.93 s

CC1=CC(=O)CC(c2cccnc2)N1 (racemic) [Example 36, (±)-6-Methyl-2-(3-pyridyl)-2,3-dihydro-4(1H)-pyridinone]
T2 − T1 (s), difference between the recognition times of the 2 encounters (Wistar rat [1]): -36 s

CC1=CC(=O)CC(c2ccc(Cl)c(Cl)c2)N1 (racemic) [Example 26, (±)-2-(3,4-Dichlorophenyl)-6-methyl-2,3-dihydro-4(1H)-pyridinone]
Inhibition (%) of the number of abdominal cramps (NMRI mouse; dose 10 mg/kg): 55%

COc1cccc(C2CC(=O)C=C(C)N2)c1 (racemic) [Example 27, (±)-2-(3-Methoxyphenyl)-6-methyl-2,3-dihydro-4(1H)-pyridinone]
Delta (s), difference between exploration times for new and familiar object (Wistar rat [2]; dose 3 mg/kg, i.p.): 6.68 s

CC1=CC(=O)C[C@@H](c2cccc(Cl)c2)N1 [Example 18, (2S)-2-(3-Chlorophenyl)-6-methyl-2,3-dihydro-4-(1H)-pyridinone]
Delta (s), difference between exploration times for new and familiar object (Wistar rat [2]; dose 1 mg/kg, p.o.): 6.2 s

CC1=CC(=O)CC(c2ccc(Cl)cc2)CN1 (racemic) [Example 25, (±)-6-(4-Chlorophenyl)-2-methyl-1,5,6,7-tetrahydro-4H-azepin-4-one]
Inhibition (%) of the number of abdominal cramps (NMRI mouse; dose 20 mg/kg): 69%

CC1=CC(=O)CC(c2ccc(Cl)cc2)N1 (racemic) [Example 24, (±)-2-(4-Chlorophenyl)-6-methyl-2,3-dihydro-4(1H)-pyridinone]
T2 − T1 (s), difference between the recognition times of the 2 encounters (Wistar rat [1]): -32 s
Delta (s), difference between exploration times for new and familiar object (Wistar rat [2]; dose 3 mg/kg, i.p.): 7.55 s
